From US20110009343A1, “MODULATORS OF AMYLOID AGGREGATION” (Praecis Pharmaceuticals, Inc., priority 1995, published 2011)
Marks after values point to notes of the source that are not given here. One block for each molecule: values may come before it. Numbered stars: 1 amine (or outer) side, 2 acyl side, 3 side chain; on linkers, the order of the positions; unused ones are H or OH. Square brackets hold non-standard residues; d marks the D form. Primed or numbered codes have the meaning given here. Peptide text beside a SMILES is read from it. * marks the point of attachment. Cholyl = C[C@H](CCC(=O)*)[C@H]1CC[C@H]2[C@@H]3[C@H](O)C[C@@H]4C[C@H](O)CC[C@]4(C)[C@H]3C[C@H](O)[C@]12C; Adp″ = aminoethyldibenzofuranylpropanoic acid, NCCc1cccc2c1oc1c(CCC(=O)*)cccc12; X2 = O=C(C1(O)C[C@H](O)[C@@H](N[*:1])[C@H]([C@H](O)[C@H](O)CO)O1)[*:2]; X3 = N=C1N[C@H]2[C@H](CS[C@H]2CCCCC(=O)*)N1; NMeV = CN[C@H](C(=O)O)C(C)C

Target: T1, Aβ1-40 (Homo sapiens, UniProt P05067)
T1 construct: (β-AP1-40) was obtained commercially from Bachem (Torrance, Calif.); purchased Bachem (Torrance, Calif.)
Assay: Nucleation assay (turbidity, A405 nm);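 further: synthetic Aβ monomer polymerization followed by turbidity in 96-well plates with continuous shaking, read every 15 minutes over 5 hours, compared against wells lacking test compound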
Type: biochemical
Conditions: for % Inucl'n (percent reduction in maximum observed turbidity) / ΔLag (ratio of lag time with test compound to lag time of control) / inhibition at 100 mol %: Table V; for ΔLag (ratio of lag time with test compound to lag time of control): 100 mole % inhibitor relative to Aβ1-40; for inhibition at 100 mol %: read-out: % Inucl'n (percent reduction in maximum observed turbidity)

[1] = Table II, 100 mole % vs 50 μM Aβ1-40

T1 sequence (P05067 672-711): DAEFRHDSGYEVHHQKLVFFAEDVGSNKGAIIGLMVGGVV
Source text: The nucleation assay is employed to determine the ability of test compounds to alter (e.g. inhibit) the early events in formation of β-AP fibers from monomeric β-AP. […] The time delay before polymerization of β-AP monomer can be quantified as well as the extent of formation of insoluble fiber by light scattering (turbidity). Polymerization reaches equilibrium when the maximum turbidity reaches a plateau. The turbidity of a solution of natural β-AP in the absence or presence of various concentrations of a β-amyloid modulator compound is determined by measuring the apparent absorbance of the solution at 405 nm (A405 nm) over time. The threshold of sensitivity for the measurement of turbidity is in the range of 15-20 μM β-AP. […] This assay can be performed using stirring or shaking to accelerate polymerization, thereby increasing the speed of the assay. Moreover the assay can be adapted to a 96-well plate format to screen multiple compounds.
HFIP-solubilized peptide is sonicated in a waterbath sonicator for 5 mM at highest setting, then evaporated to dryness under a stream of argon. The peptide film is resuspended in anhydrous dimethylsulfoxide (DMSO) at a concentration of 6.9 mg/ml (25× concentration), sonicated for 5 mM as before, then filtered through a 0.2 micron nylon syringe filter (VWR cat. No. 28196-050). Test compounds are dissolved in DMSO at a 100× concentration. […] Ten microliters of the mixture is then added to the bottom of a well of a Corning Costar ultra low binding 96-well plate (Corning Costar, Cambridge Mass.; cat. No. 2500). Ninety microliters of water is added to the well, the plate is shaken on a rotary shaken at a constant speed at room temperature for 30 seconds, an additional 100 μl of 2×PTL buffer (20 mM NaH2PO4, 300 mM NaCl, pH 7.4) is added to the well, the plate is reshaken for 30 seconds and a baseline (t=0) turbidity reading is taken by measuring the apparent absorbance at 405 nm using a Bio-Rad Model 450 Microplate Reader. The plate is then returned to the shaker and shaken continuously for 5 hours. Turbidity readings are taken at 15 minute intervals.
β-amyloid aggregation in the absence of any modulators results in enhanced turbidity of the natural β-AP solution (i.e., an increase in the apparent absorbance at 405 nm over time).
Accordingly a fold increase in lag time of 1.0 indicates no change in lag time, whereas numbers >1.0 indicate an increase in lag time. The “% inhibition of plateau”, which is a measure of the ability of the compound to decrease the total amount of aggregation, refers to the reduction of the final turbidity in the presence of the test compound expressed as a percent of the control without the test compound.

- % Inucl'n (percent reduction in maximum observed turbidity) (33 mol % inhibitor): 5** %
Molecule: PPI-315: CA-HQKLVFF-nh2 (N-terminal CA cap; C-terminal amide)

- % Inucl'n (percent reduction in maximum observed turbidity) (33 mol % inhibitor): 100** %
Molecule: PPI-407: CA-LVFFK-oh

- Fold Increase in Lag Time [1]: 1.3 fold
Molecule: CC(=O)N[C@H]1[C@H]([C@H](O)[C@H](O)CO)OC(O)(C(=O)N[C@@H](Cc2c[nH]cn2)C(=O)N[C@@H](CC(=O)O)C(=O)N[C@@H](CO)C(=O)NCC(=O)N[C@@H](Cc2ccc(O)cc2)C(=O)N[C@@H](CCC(=O)O)C(=O)N[C@H](C(=O)N[C@@H](Cc2c[nH]cn2)C(=O)N[C@@H](Cc2c[nH]cn2)C(=O)N[C@@H](CCC(N)=O)C(=O)N[C@@H](CCCCN)C(=O)N[C@@H](CC(C)C)C(=O)N[C@H](C(=O)N[C@@H](Cc2ccccc2)C(=O)N[C@@H](Cc2ccccc2)C(=O)O)C(C)C)C(C)C)C[C@@H]1O (some centres unmarked) [PPI-266] (Ac-[X2]HDSGYEVHHQKLVFF-OH)

- % Inucl'n (percent reduction in maximum observed turbidity) (33 mol % inhibitor): 100** %
Molecule: PPI-418: h-(Aic)-LVFFA-oh

- inhibition at 100 mol % (100 mole % inhibitor): 0%
Molecule: CC(C)C[C@H](NC(=O)[C@@H](N)CCCCN)C(=O)N[C@H](C(=O)N[C@@H](Cc1ccccc1)C(=O)N[C@@H](Cc1ccccc1)C(=O)O)C(C)C [PPI-377, Aβ16-20]

- % Inucl'n (percent reduction in maximum observed turbidity) (100 mole % inhibitor): 15%
Molecule: CC(C)C[C@H](N)C(=O)N[C@H](C(=O)N[C@@H](Cc1ccccc1)C(=O)N[C@@H](Cc1ccccc1)C(=O)N[C@@H](C)C(=O)O)C(C)C [PPI-386]

- Fold Increase in Lag Time [1]: ~1 fold
Molecule: CC[C@H](C)[C@H](NC(=O)[C@H](C)NC(=O)CNC(=O)[C@H](CCCCN)NC(=O)[C@H](CC(N)=O)NC(=O)[C@H](CO)NC(=O)CNC(=O)[C@@H](NC(=O)[C@H](CC(=O)O)NC(=O)[C@H](CCC(=O)O)NC(=O)[C@H](C)NC(=O)C1(O)C[C@H](O)[C@@H](NC(C)=O)[C@H]([C@H](O)[C@H](O)CO)O1)C(C)C)C(=O)N[C@H](C(=O)NCC(=O)N[C@@H](CC(C)C)C(=O)N[C@@H](CCSC)C(=O)O)[C@@H](C)CC (some centres unmarked) [PPI-281] (Ac-[X2]AEDVGSNKGAIIGLM-OH)

- Fold Increase in Lag Time (Table IV, 100 mole %): 1.3 fold
- ΔLag (ratio of lag time with test compound to lag time of control): 1.3
- inhibition at 100 mol % (100 mole % inhibitor): 86%
Molecule: CC(C)C[C@H](NC(=O)[C@H](CCCCN)NC(=O)CCCC[C@@H]1SC[C@@H]2NC(=N)N[C@@H]21)C(=O)N[C@H](C(=O)N[C@@H](Cc1ccccc1)C(=O)N[C@@H](Cc1ccccc1)C(=O)O)C(C)C [PPI-374, iminobiotinyl-Aβ16-20]

- inhibitory activity on Aβ aggregation: had no effect on Aβ aggregation
- inhibition at 100 mol % (100 mole % inhibitor): 0%
Molecule: C[C@H](CCC(=O)O)[C@H]1CC[C@H]2[C@@H]3[C@H](O)C[C@@H]4C[C@H](O)CC[C@]4(C)[C@H]3C[C@H](O)[C@]12C [PPI-293, Cholic acid, reference compound]

- Fold Increase in Lag Time [1]: 1.3 fold
Molecule: CC[C@H](C)[C@H](NC(=O)[C@H](C)NC(=O)CNC(=O)[C@H](CCCCN)NC(=O)[C@H](CC(N)=O)NC(=O)[C@H](CO)NC(=O)C1(O)C[C@H](O)[C@@H](NC(C)=O)[C@H]([C@H](O)[C@H](O)CO)O1)C(=O)N[C@H](C(=O)NCC(=O)N[C@@H](CC(C)C)C(=O)N[C@@H](CCSC)C(=O)N[C@H](C(=O)NCC(=O)NCC(=O)N[C@H](C(=O)N[C@H](C(=O)O)C(C)C)C(C)C)C(C)C)[C@@H](C)CC (some centres unmarked) [PPI-286] (Ac-[X2]SNKGAIIGLMVGGVV-OH)

- % Inucl'n (percent reduction in maximum observed turbidity) (100 mole % inhibitor): −5%
Molecule: CC(C)C[C@H](NC(=O)OC(C)(C)C)C(=O)N[C@H](C(=O)N[C@@H](Cc1ccccc1)C(=O)N[C@@H](Cc1ccccc1)C(=O)N[C@@H](C)C(=O)O)C(C)C [PPI-435]

- % Inucl'n (percent reduction in maximum observed turbidity) (100 mole % inhibitor): −75%
- ΔLag (ratio of lag time with test compound to lag time of control): 1.4
Molecule: PPI-403: h-DDIII(N-Me-Val)DLL(Adp)-HQKLVFF-oh ({H2N-Asp-Asp-Ile-Ile-Ile-NMeV-Asp-Leu-Leu-Adp″}-HQKLVFF-OH)

Continued, molecule first:

Molecule: CC(C)C[C@H](NC(=O)[C@H](CCCCN)NC(=O)CC[C@@H](C)[C@H]1CC[C@H]2[C@@H]3[C@H](O)C[C@@H]4C[C@H](O)CC[C@]4(C)[C@H]3C[C@H](O)[C@]12C)C(=O)N[C@H](C(=O)N[C@@H](Cc1ccccc1)C(=O)N[C@@H](Cc1ccccc1)C(=O)N[C@@H](C)C(=O)N[C@@H](CCC(=O)O)C(=O)N[C@@H](CC(=O)O)C(=O)N[C@H](C(=O)NCC(=O)N[C@@H](CO)C(=O)N[C@@H](CC(N)=O)C(=O)N[C@@H](CCCCN)C(=O)NCC(=O)N[C@@H](C)C(=O)O)C(C)C)C(C)C [PPI-274] (Cholyl-KLVFFAEDVGSNKGA-OH)
- Fold Increase in Lag Time [1]: >4.5 fold

Molecule: C[C@H](CCC(=O)N[C@@H](Cc1c[nH]cn1)C(=O)N[C@@H](CC(=O)O)C(=O)N[C@@H](CO)C(=O)NCC(=O)N[C@@H](Cc1ccc(O)cc1)C(N)=O)[C@H]1CC[C@H]2[C@@H]3[C@H](O)C[C@@H]4C[C@H](O)CC[C@]4(C)[C@H]3C[C@H](O)[C@]12C [PPI-339] (Cholyl-HDSGY-NH2)
- Fold Increase in Lag Time (Table III, 33 mole %): 1.1 fold
- ΔLag (ratio of lag time with test compound to lag time of control): 1.1
- inhibition at 100 mol % (100 mole % inhibitor): -18%

Molecule: CC[C@H](C)[C@H](NC(=O)[C@H](C)NC(=O)CNC(=O)[C@H](CCCCN)NC(=O)[C@H](CC(N)=O)NC(=O)[C@H](CO)NC(=O)CCCC[C@@H]1SC[C@@H]2NC(=N)N[C@@H]21)C(=O)N[C@H](C(=O)NCC(=O)N[C@@H](CC(C)C)C(=O)N[C@@H](CCSC)C(=O)N[C@H](C(=O)NCC(=O)NCC(=O)N[C@H](C(=O)N[C@H](C(=O)O)C(C)C)C(C)C)C(C)C)[C@@H](C)CC [PPI-287] (X3-SNKGAIIGLMVGGVV-OH)
- Fold Increase in Lag Time [1]: 2.3 fold

Molecule: CC(C)C[C@H](NC(=O)[C@H](CCCCN)NC(=O)[C@H](CCC(N)=O)NC(=O)[C@H](Cc1c[nH]cn1)NC(=O)[C@H](Cc1c[nH]cn1)NC(=O)[C@@H](NC(=O)[C@H](CCC(=O)O)NC(=O)[C@H](Cc1ccc(O)cc1)NC(=O)CNC(=O)[C@H](CO)NC(=O)[C@H](CC(=O)O)NC(=O)CC[C@@H](C)[C@H]1CC[C@H]2[C@@H]3[C@H](O)C[C@@H]4C[C@H](O)CC[C@]4(C)[C@H]3C[C@H](O)[C@]12C)C(C)C)C(=O)N[C@H](C(=O)N[C@@H](Cc1ccccc1)C(=O)N[C@@H](Cc1ccccc1)C(=O)O)C(C)C [PPI-341, cholyl-Aβ7-20] (Cholyl-DSGYEVHHQKLVFF-OH)
- Fold Increase in Lag Time (Table III, 33 mole %): 2 fold
- Fold Increase in Lag Time (Table III, 100 mole %): >4.5 fold

Molecule: CC(C)C[C@H](NC(=O)[C@H](CCCCN)NC(=O)[C@H](CCC(N)=O)NC(=O)[C@H](Cc1c[nH]cn1)NC(=O)[C@H](Cc1c[nH]cn1)NC(=O)[C@@H](NC(=O)[C@H](CCC(=O)O)NC(=O)[C@H](Cc1ccc(O)cc1)NC(=O)CNC(=O)[C@H](CO)NC(=O)[C@H](CC(=O)O)NC(=O)[C@H](Cc1c[nH]cn1)NC(=O)CC[C@@H](C)[C@H]1CC[C@H]2[C@@H]3[C@H](O)C[C@@H]4C[C@H](O)CC[C@]4(C)[C@H]3C[C@H](O)[C@]12C)C(C)C)C(N)=O [PPI-325] (Cholyl-HDSGYEVHHQKL-NH2)
- Fold Increase in Lag Time (Table III, 33 mole %): 1.8 fold

Molecule: CC(C)C[C@H](NC(=O)[C@H](CCCCN)NC(=O)CCCC[C@@H]1SC[C@@H]2NC(=N)N[C@@H]21)C(=O)N[C@H](C(=O)N[C@@H](Cc1ccccc1)C(=O)N[C@@H](Cc1ccccc1)C(=O)N[C@@H](C)C(=O)N[C@@H](CCC(=O)O)C(=O)N[C@@H](CC(=O)O)C(=O)N[C@H](C(=O)NCC(=O)N[C@@H](CO)C(=O)N[C@@H](CC(N)=O)C(=O)N[C@@H](CCCCN)C(=O)NCC(=O)N[C@@H](C)C(=O)O)C(C)C)C(C)C [PPI-277] (X3-KLVFFAEDVGSNKGA-OH)
- Fold Increase in Lag Time [1]: 1.2 fold

Molecule: CC(C)C[C@H](NC(=O)[C@H](CCCCN)NC(=O)[C@H](CCC(N)=O)NC(=O)[C@H](Cc1c[nH]cn1)NC(=O)[C@H](Cc1c[nH]cn1)NC(=O)CC[C@@H](C)[C@H]1CC[C@H]2[C@@H]3[C@H](O)C[C@@H]4C[C@H](O)CC[C@]4(C)[C@H]3C[C@H](O)[C@]12C)C(=O)N[C@H](C(=O)N[C@@H](Cc1ccccc1)C(=O)N[C@@H](Cc1ccccc1)C(=O)O)C(C)C [PPI-347, cholyl-Aβ13-20] (Cholyl-HHQKLVFF-OH)
- Fold Increase in Lag Time (Table III, 33 mole %): 2.6 fold
- Fold Increase in Lag Time (Table IV, 10 mole %): 2.2 fold

Molecule: CC[C@H](C)[C@H](NC(=O)[C@H](C)NC(=O)CNC(=O)[C@H](CCCCN)NC(=O)[C@H](CC(N)=O)NC(=O)[C@H](CO)NC(=O)CC[C@@H](C)[C@H]1CC[C@H]2[C@@H]3[C@H](O)C[C@@H]4C[C@H](O)CC[C@]4(C)[C@H]3C[C@H](O)[C@]12C)C(=O)N[C@H](C(=O)NCC(=O)N[C@@H](CC(C)C)C(=O)N[C@@H](CCSC)C(=O)N[C@H](C(=O)NCC(=O)NCC(=O)N[C@H](C(=O)N[C@H](C(=O)O)C(C)C)C(C)C)C(C)C)[C@@H](C)CC [PPI-284] (Cholyl-SNKGAIIGLMVGGVV-OH)
- Fold Increase in Lag Time [1]: >4.5 fold

Molecule: CC(C)C[C@H](NC(=O)[C@H](CCCCN)NC(=O)CC[C@@H](C)[C@H]1CC[C@H]2[C@@H]3[C@H](O)C[C@@H]4C[C@H](O)CC[C@]4(C)[C@H]3C[C@H](O)[C@]12C)C(=O)N[C@H](C(=O)N[C@@H](C)C(=O)N[C@@H](Cc1ccccc1)C(=O)O)C(C)C [PPI-370, cholyl-Aβ16-20 Phe19->Ala] (Cholyl-KLVAF-OH)
- Fold Increase in Lag Time (Table IV, 100 mole %): 2.6 fold
- ΔLag (ratio of lag time with test compound to lag time of control): 2.6
- inhibition at 100 mol % (100 mole % inhibitor): 73%

Molecule: CC(C)C[C@H](NC(=O)[C@H](CCCCN)NC(=O)[C@H](CCC(N)=O)NC(=O)CC[C@@H](C)[C@H]1CC[C@H]2[C@@H]3[C@H](O)C[C@@H]4C[C@H](O)CC[C@]4(C)[C@H]3C[C@H](O)[C@]12C)C(=O)N[C@H](C(=O)N[C@@H](Cc1ccccc1)C(=O)O)C(C)C [PPI-366] (Cholyl-QKLVF-OH)
- Fold Increase in Lag Time (Table IV, 10 mole %): 1.6 fold
- Fold Increase in Lag Time (Table IV, 100 mole %): 3.1 fold
- ΔLag (ratio of lag time with test compound to lag time of control): 3.1
- inhibition at 100 mol % (100 mole % inhibitor): -23%

Molecule: C[C@H](NC(=O)[C@H](C)NC(=O)[C@H](C)NC(=O)[C@H](C)NC(=O)[C@H](C)NC(=O)CC[C@@H](C)[C@H]1CC[C@H]2[C@@H]3[C@H](O)C[C@@H]4C[C@H](O)CC[C@]4(C)[C@H]3C[C@H](O)[C@]12C)C(=O)O [PPI-365, Cholyl-penta-alanine]
- Fold Increase in Lag Time (Table IV, 100 mole %): ~1 fold
- ΔLag (ratio of lag time with test compound to lag time of control): 0.8
- inhibition at 100 mol % (100 mole % inhibitor): -7%
